Data on 14 molecules can be found in ChEMBL document CHEMBL1201862, “PubChem BioAssay data set” (2004).

SMILES strings stand for the structures.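 In this assay, cells in 96-well plates receive the compound at five concentrations for 48 hours. Endpoints are linearly interpolated between the surrounding concentrations. GI50 marks 50% less growth.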 Calls of active or inactive are those of the source. Rule as the data show it: active = GI50 up to about 1.1 µM and inactive = higher.

Test systems include OVCAR-5; HCC 2998; OVCAR-4; UACC-62; MOLT-4; SW-620; U-251; OVCAR-8; KM12; HL-60; RPMI-8226; SK-MEL-5; ACHN; K562; NCI-H460; A498; HOP-62.
Holding throughout (assay): DTP human tumour cell line panel, 48 h

For `NC1=NS(=O)(=O)N=C(N)C1=Cc1ccc([N+](=O)[O-])o1`, the GI50 in the test on OVCAR-5 is 18.9 µM (inactive); with HCC 2998, 22.1 µM (inactive); in the test with OVCAR-4, 19.9 µM (inactive); in the test with UACC-62, 16.4 µM (inactive); with MOLT-4, 12.6 µM (inactive); with SW-620, 18.3 µM (inactive). For the same molecule, the GI50 with U-251 was 50.8 µM (inactive); with OVCAR-8, 17.3 µM (inactive); in the test on KM12 it was 18.5 µM (inactive); in the test on HL-60 it was 5.51 µM (inactive); in the test with RPMI-8226, 17.1 µM (inactive); in the test with SK-MEL-5 it was 15.3 µM (inactive). Moreover, the GI50 is 16.9 µM (inactive) with ACHN, 6.01 µM (inactive) with K562 and 17.9 µM (inactive) in the test on NCI-H460.
In the case of `Cc1ccc2nc(NC(=O)C(=O)C(C#N)c3nc4ccccc4s3)sc2c1` (stereo not drawn), the GI50 is 57.5 µM (inactive) in the test with OVCAR-5; 79.8 µM (inactive) in the test on HCC 2998; 39 µM (inactive) in the test with OVCAR-4; 30.7 µM (inactive) in the test on UACC-62; 20.4 µM (inactive) in the test on MOLT-4; 19.5 µM (inactive) in the test on A498. Besides, the GI50 with SW-620 was 55.1 µM (inactive); in the test on U-251 it was 33.7 µM (inactive); in the test with OVCAR-8 it was 30.4 µM (inactive); in the test on KM12, 47.2 µM (inactive); in the test with HOP-62, 14.5 µM (inactive); in the test with RPMI-8226, 28.3 µM (inactive). Also, the GI50 with SK-MEL-5 is 19.4 µM (inactive); with ACHN it was 42.3 µM (inactive); in the test with K562 it was 29.2 µM (inactive); in the test with NCI-H460, 34 µM (inactive).
As to `CCSc1nnc(-c2ccccc2)nc1Cc1ccc(OC)cc1`, the GI50 is > 100 µM (inactive) in the test with HCC 2998; > 100 µM (inactive) with OVCAR-4; > 100 µM (inactive) in the test on UACC-62; 49.2 µM (inactive) in the test with MOLT-4; 77.6 µM (inactive) with A498; > 100 µM (inactive) in the test on SW-620. Also, the GI50 in the test with U-251 was 79.6 µM (inactive); with OVCAR-8 it was > 100 µM (inactive); in the test with KM12, > 100 µM (inactive); with HL-60, 40.5 µM (inactive); with HOP-62, > 100 µM (inactive); with RPMI-8226, 81.8 µM (inactive). Also, the GI50 in the test with ACHN is 77.8 µM (inactive); in the test on K562, 71.3 µM (inactive); in the test with NCI-H460 it was 46.5 µM (inactive).
Consider `CC(C)c1ccccc1NC(=O)CCC(=O)NN`, for which the GI50 in the test with UACC-62, in the test on MOLT-4, in the test on SW-620, in the test with U-251, in the test on KM12 and in the test on HL-60 was > 100 µM (inactive) in each case. Besides, the GI50 in the test on RPMI-8226, in the test with ACHN and in the test with K562 was > 100 µM (inactive) each time.
As to `COC(=O)/C(C#N)=C1\CCC(OC)N1C` (stereo not drawn), the GI50 with OVCAR-5, with HCC 2998, with OVCAR-4, in the test on UACC-62, in the test with MOLT-4 and in the test with SW-620 was > 100 µM (inactive) each time. The GI50 with U-251, in the test on OVCAR-8, in the test with KM12, with HL-60, in the test with HOP-62 and in the test with RPMI-8226 was > 100 µM (inactive) each time. Also, the GI50 with SK-MEL-5, in the test with ACHN, in the test with K562 and in the test on NCI-H460 was > 100 µM (inactive) throughout.
With `COc1ccc(-c2cc(-c3cc(Cl)cc(Br)c3O)nc(O)n2)cc1`, the GI50 was 19.9 µM (inactive) with HCC 2998; 5.66 µM (inactive) with OVCAR-4; 14.9 µM (inactive) in the test on UACC-62; 13.2 µM (inactive) with MOLT-4; 16.6 µM (inactive) in the test with A498; 20.7 µM (inactive) in the test with SW-620. Also, the GI50 in the test on U-251 was 17 µM (inactive); in the test on OVCAR-8, 16.7 µM (inactive); with KM12 it was 18.9 µM (inactive); with HL-60, 23.2 µM (inactive); with HOP-62 it was 14.1 µM (inactive); in the test on RPMI-8226, 18.8 µM (inactive). The values for the GI50 in the test with ACHN, in the test with K562 and in the test with NCI-H460 were 14.2 µM (inactive), 14.1 µM (inactive) and 17.9 µM (inactive), respectively.
For `CCN(CC)C(=O)CCn1ccc(=O)[nH]c1=O`, the GI50 with OVCAR-5, with OVCAR-4, in the test on UACC-62, in the test on MOLT-4, in the test on SW-620 and in the test with U-251 was > 100 µM (inactive) in each case. Moreover, the GI50 in the test with OVCAR-8, in the test on KM12, with HL-60, in the test on HOP-62, with RPMI-8226 and with SK-MEL-5 was > 100 µM (inactive) in each case. The GI50 in the test with ACHN, in the test with K562 and in the test with NCI-H460 was > 100 µM (inactive) throughout.
As to `O=C1CC2=CCCC2O1` (stereo not drawn), the GI50 in the test with HCC 2998, in the test with OVCAR-4, with UACC-62, in the test with MOLT-4, in the test with A498 and with SW-620 was > 100 µM (inactive) in each case. For the same molecule, the GI50 in the test on U-251, with OVCAR-8, in the test on KM12, in the test with HL-60, with HOP-62 and with RPMI-8226 was > 100 µM (inactive) throughout. Also, the GI50 with SK-MEL-5, in the test on K562 and with NCI-H460 was > 100 µM (inactive) in each case.
Turning to `CCOC(=O)CCC(=O)C1c2cccc(O)c2C(=O)c2c(O)cccc21`, the GI50 in the test on OVCAR-5 is 1.75 µM (inactive); with HCC 2998, 0.537 µM (active); in the test with OVCAR-4, 0.611 µM (active); in the test on UACC-62, 0.395 µM (active); in the test with MOLT-4 it was 2.31 µM (inactive); in the test with SW-620, 0.6 µM (active). For the same molecule, the concentration for 50% growth inhibition (GI50) in the test on U-251 was 0.301 µM (active); in the test with OVCAR-8 it was 1.58 µM (inactive); with KM12 it was 0.652 µM (active); with HL-60, 0.223 µM (active); in the test with HOP-62, 1.73 µM (inactive); in the test with SK-MEL-5 it was 0.226 µM (active). The GI50 in the test with ACHN was 1.43 µM (inactive); in the test with K562, 0.37 µM (active); with NCI-H460, 0.26 µM (active).
Take `O=C1C(c2ccccc2)=[N+]([O-])c2ccc(Cl)cc21`: the GI50 in the test on OVCAR-5 was 35.2 µM (inactive); in the test with UACC-62, 17.5 µM (inactive); in the test on MOLT-4 it was 23.6 µM (inactive); with A498, > 100 µM (inactive); in the test on SW-620, 49.2 µM (inactive); in the test with U-251, 25.9 µM (inactive). For the same molecule, the GI50 with OVCAR-8 was 15 µM (inactive); with KM12, 30.1 µM (inactive); in the test with HL-60, 10.6 µM (inactive); in the test on HOP-62, 63.4 µM (inactive); with RPMI-8226 it was 21.2 µM (inactive); with SK-MEL-5 it was 17.3 µM (inactive). The results for the GI50 with ACHN, in the test on K562 and in the test with NCI-H460 were 23.2 µM (inactive), 32.5 µM (inactive) and 42.4 µM (inactive), respectively.
Consider `CSc1sc(=S)sc1C(=O)N(C)c1ccccc1`, for which the GI50 is > 100 µM (inactive) in the test with OVCAR-5; > 100 µM (inactive) in the test on OVCAR-4; 78.7 µM (inactive) in the test with UACC-62; 84.5 µM (inactive) in the test on MOLT-4; > 100 µM (inactive) with SW-620; > 100 µM (inactive) in the test on U-251. For the same molecule, the GI50 is > 100 µM (inactive) with OVCAR-8; 91.8 µM (inactive) in the test on KM12; 35.6 µM (inactive) in the test with HL-60; > 100 µM (inactive) with HOP-62; 52.7 µM (inactive) with RPMI-8226; > 100 µM (inactive) in the test on SK-MEL-5. Further, the GI50 with ACHN, in the test with K562 and with NCI-H460 was > 100 µM (inactive) throughout.
With `CSC(=O)C[C@@]12O[C@@H]([C@@H](C)C3CCC4[C@@H]5C(O)CC6=CC(=O)C=C[C@]6(C)C5CC[C@@]43C)C[C@](C)(O1)C(C)(C)O2` (stereo partly drawn), the GI50 in the test with OVCAR-5 is 17.7 µM (inactive); in the test with HCC 2998, 26.2 µM (inactive); in the test with OVCAR-4 it was 13.5 µM (inactive); in the test on UACC-62, 10.3 µM (inactive); in the test on A498 it was 16.4 µM (inactive); in the test on SW-620, 17.3 µM (inactive). In addition, the GI50 with U-251 was 12.5 µM (inactive); in the test with OVCAR-8, 17.8 µM (inactive); in the test on KM12, 16 µM (inactive); with HL-60, 7.85 µM (inactive); in the test on HOP-62 it was 18.2 µM (inactive); in the test on RPMI-8226 it was 4.8 µM (inactive). For the same molecule, the GI50 is 4.3 µM (inactive) in the test on K562 and 19.1 µM (inactive) in the test with NCI-H460.
On to `BrC12C3C4C5C(C(C43)C13OCCO3)C52` (stereo not drawn), for which the GI50 in the test with OVCAR-5, in the test on HCC 2998, in the test with MOLT-4, with A498, in the test on SW-620 and in the test with U-251 was > 100 µM (inactive) each time. For the same molecule, the GI50 with OVCAR-8, in the test with KM12, with HL-60, in the test on HOP-62, in the test with RPMI-8226 and in the test on SK-MEL-5 was > 100 µM (inactive) throughout. Besides, the GI50 in the test on ACHN, in the test with K562 and in the test with NCI-H460 was > 100 µM (inactive) each time.
For the molecule `N#[N+][c-]1c(-c2ccccc2)n[nH]c1=O`, the GI50 in the test with OVCAR-5, with HCC 2998, with OVCAR-4, in the test on MOLT-4, in the test on SW-620 and in the test with U-251 was > 100 µM (inactive) each time. Moreover, the GI50 in the test on OVCAR-8 was > 100 µM (inactive); in the test on KM12 it was > 100 µM (inactive); in the test on HL-60 it was > 100 µM (inactive); with RPMI-8226, > 100 µM (inactive); in the test with ACHN, > 100 µM (inactive); in the test with K562, 97.9 µM (inactive). Further, the GI50 in the test on NCI-H460 is > 100 µM (inactive).
